Laboratory results reported in patent publication US20230321105A1, “CELL SIGNAL DETECTION AND MODULATION IN DISEASE” (Washington University, priority 2022, published 2023).

What was measured:
[1] = system: glioma; settings: STAT3 inhibitor and irradiation vs either treatment alone; glioma preclinical study; cited from earlier work
[2] = system: LL2/B3a tumors; experiment: LL2/B3a tumors treated with Serpinb3a siRNA with or without 10 Gy RT; format: in vivo, C57/BL6 mice
Experimental: Single-cell suspensions were blocked with either Human TruStain FcX Solution (422301, Biolegend) or mouse TruStain FcX PLUS (anti-mouse CD16/32) Antibody (S17011E, Biolegend) to avoid nonspecific Fc receptor binding and stained with LIVE/DEADFixable Dead Cell Stain Kit (MACS) to exclude dead cells. For surface staining, cells were incubated with the appropriate antibodies for 30 min at 4° C. Intracellular cytokine and nuclear staining was performed after surface staining using Cyto-Fast Fix/Perm Buffer Set and True-Nuclear Transcription Factor Buffer Set, respectively (BioLegend). Data analysis including viSNE and FlowJo plugin FlowSOM were performed on FlowJo v.10 (TreeStar). A range of 20,000 to 60,000 live cells was acquired and individual flow cytometry data from each group were combined into a single data file for generating viSNE. Color-coded subpopulations were gated by pre-defined markers for each immune cell type and overlaid to the viSNE plots for total CD45+ cells from tumors. All flow cytometry gating plots, histograms, and statistics were generated on FlowJo.
For xenograft models, female athymic nude mice aged 6-7 weeks old (Charles River) were injected subcutaneously with 5×10^6 Caski/Ctrl or Caski/B3 cells suspended in serum-free IMDM and 50% Matrigel Basement Membrane Matrix (Corning) to a final volume of 100 μl on their flank. For immunocompetent models, female C57/BL6 mice aged 7-8 weeks (Charles River) were injected subcutaneously with 5×10^5 LL2/Ctrl or LL2/B3a cells suspended in 100 μl of PBS into the right flank. To deplete myeloid cells, mice were treated with anti-CD11b antibody (Ultra-LEAF purified anti-mouse CD11b, Biolegend) or isotype IgG2b as control (Ultra-LEAF purified rat IgG2b, Biolegend). Antibodies were administered through intraperitoneal injection at the initial dose of 300 μg in 150 μl PBS on day 10 post-tumor inoculation, and a subsequent dose of 150 μg in 100 μl PBS every three days. To knock down Serpinb3a, mice received either mSerpinb3a siRNA (5′-ACAUCGAAUUUAACUUCAUtt-3′; 5′-AUGAAGUUAAAUUCGAUGUtt-3′; ID:s73336, Thermo) or control siRNA (Ambion in vivo negative control #1 Thermo) complexed with Invivofectamine 3 (Thermo Fisher) as per manufacturer's protocol. Mice received three intratumoral injections of 10 μg siRNA on days 9, 11, and 13 post-tumor inoculation before radiation treatment performed on day 14. On days 16 and 19, mice received 20 μg siRNA via intraperitoneal injection. For radiation treatment, mice were randomized to receive sham or 10Gy RT using the Xstrahl Small Animal Radiation Research Platform (SARRP) 200 (Xstrahl Life Sciences). Tumor volume was measured twice weekly and calculated by (length×width2)/2. For tissue dissociation, tumors were manually dissected and digested with 1 mg/ml Collagenase, 0.5 mg/ml hyaluronidase, and 10 mg/mL DNase I type IV (Sigma), and transferred to a tissue disaggregator (Medicon, BectonDickinson) using a CTSV (Medimachine II, BectonDickinson) and tissue homogenates were filtered through a 100 μm strainer. Spleens were dissociated by being pressed through a 70 μm filter. Animal work was approved by the Washington University Institute Institutional Animal Care and Use Committee (Protocol #20-0470).
T cells isolated using MojoSort mouse CD3 T cell isolation kit (Biolegend) were labeled with CellTrace violet and activated with CD3/CD28 Dynabeads (Thermo Fisher) for 4 days to evaluate proliferation. To examine TNF and IFNr, T cells were stimulated with 500× Cell Activation Cocktail containing 40.5 μM phorbol-12-myristate 13-acetate (PMA) and 669.3 μM ionomycin (Biolegend) in the presence of 5 μg/mL BFA (Biolegend) for 5 h and stained with surface/intracellular markers for FACS analysis.
Cell culture supernatant was collected at 48 h after fresh media was added to the adherent cells in a monolayer. Cell lysates were prepared using NP-40 buffer (Alfa Aesar). […]

[3] = system: pSTAT3 (Tyr705) and CD11b; experiment: Immunohistochemistry of mouse tumors treated with Serpinb3a siRNA; format: in vivo
Experimental: Pretreatment serum SCCA was evaluated by ARUP National Reference Laboratory (Salt Lake City, UT, USA) using ELISA, and tissue microarrays were generated from untreated human tumor specimens. TMA sections were sent to HistoWiz Inc for IHC staining for CD11b (1:100, Abcam ab224800) and IHC for pSTAT3 (1:200, Sigma SAB4300033) was performed by Washington University AMP Core Labs. Mouse tumor sections were stained with pSTAT3 (1:150, Invitrogen PA5-121259) and CD11b (1:500, Invitrogen PA5-79532), using a Pierce peroxidase IHC detection kit (Thermo Fisher). QuPath V0.3.2 software was used for automated analysis using surface and cytoplasmic staining to determine the percent cells positive for CD11b. The staining scores for pSTAT3 were evaluated by the pathologist and calculated by (% of positively stained tumor cells x staining intensity ranged from 0-3). Values from at least two cores from each sample were considered valid and an average score was taken.

[4] = system: Serpinb3a; experiment: Knockdown of Serpinb3a in tumors by qPCR; format: in vivo, mouse; settings: siB3-treated LL2/B3a tumors; average
Experimental: For xenograft models, female athymic nude mice aged 6-7 weeks old (Charles River) were injected subcutaneously with 5×10^6 Caski/Ctrl or Caski/B3 cells suspended in serum-free IMDM and 50% Matrigel Basement Membrane Matrix (Corning) to a final volume of 100 μl on their flank. For immunocompetent models, female C57/BL6 mice aged 7-8 weeks (Charles River) were injected subcutaneously with 5×10^5 LL2/Ctrl or LL2/B3a cells suspended in 100 μl of PBS into the right flank. To deplete myeloid cells, mice were treated with anti-CD11b antibody (Ultra-LEAF purified anti-mouse CD11b, Biolegend) or isotype IgG2b as control (Ultra-LEAF purified rat IgG2b, Biolegend). […] Tumor volume was measured twice weekly and calculated by (length×width2)/2. […]
Lipofectamine RNAiMAX (Thermo Fisher) was used for STAT1 siRNA (ID: SASI_Hs02_00343387, SASI_Hs01_00098937, Sigma), STAT3 siRNA (ID: SASI_Hs01_00121206, SASI_Hs01_00061860, Sigma), and negative control siRNA (SIC001, Sigma) transfection, according to the manufacturer's instructions. […] Quantitative polymerase chain reaction (qPCR) was performed using PowerUp SYBR green PCR Master Mix (Applied Biosystems) and the Applied Biosystems 7900 Fast real-time PCR system and software. Each sample was performed in triplicate, gene expression levels were normalized to GAPDH, and fold changes were calculated using the ΔΔCt method. […]

Row | Molecule | survival [1] | PD-1 in CD8+ T cells ([2]; RT/siB3 vs RT/siNC) | tumor growth inhibition ([2]; combination of Serpinb3a knockdown with 10 Gy RT (RT/siB3)) | tumor growth ([2]; sham siB3-treated vs sham siNC-treated tumors) | CTLA-4 in CD8+ T cells ([2]; sham/RT siB3 vs siNC tumors) | ratio of CD8/Treg ([2]; sham/RT siB3 vs siNC tumors) | CD8+ T cells in tumors ([2]; sham/siB3 tumors) | M-MDSCs, PMN-MDSCs, and M2 macrophages in tumors ([2]; sham/siB3 vs sham/siNC tumors, flow cytometry) | expression of CXCL1, and S100A8/A9 in tumor homogenates ([2]; sham/siNC vs. sham/siB3, ELISA) | proliferative capacity of CD8+ T cells upon anti-CD3/28 stimulation ([2]; siB3 tumor-derived vs siNC tumor-derived) | expression of granzyme B and perforin in CD8+ T cells ([2]; siB3 tumors) | expression of granzyme B and perforin in CD8+ T cells ([2]; siB3 tumors with radiation treatment) | pSTAT3 expression (immunostaining of pSTAT3(Tyr705)) ([3]; LL2/B3a+siB3 tumors) | CD11b+ myeloid cell infiltration ([3]; Serpinb3a knockdown tumors) | decrease of Serpinb3a RNA expression in tumors [4]
1 | C[C@H](NC(=O)/C(C#N)=C/c1cccc(Br)n1)c1ccccc1 [WP1066] | enhanced survival |  |  |  |  |  |  |  |  |  |  |  |  |  | 
2 | siB3: mSerpinb3a siRNA 5′-ACAUCGAAUUUAACUUCAUtt-3′; 5′-AUGAAGUUAAAUUCGAUGUtt-3′; ID:s73336, Thermo, complexed with Invivofectamine 3 (sense ACAUCGAAUUUAACUUCAUTT; antisense AUGAAGUUAAAUUCGAUGUTT; Invivofectamine 3 complex, further chemistry not given here) |  | lower | more significant tumor growth inhibition | Reduced tumor growth | lower | higher ratio | increase | significant reduction | significant decrease | markedly higher proliferative capacity | increased expression | further enhanced | significantly reduced | reduced | 65%
